The source of these data is article PMC11846858, “Macrocarpal I induces immunogenic cell death and synergizes with immune checkpoint inhibition by targeting tubulin and PARP1 in colorectal cancer” (Cell Death Discovery, 2025).

The test concerns the target T1, Tubulin Beta 2B Class IIb (TUBB2B) (Homo sapiens, UniProt Q9BVA1).
T1 construct: human TUBB2B in pET28a, N-terminal His-tag, expressed in E. coli BL21 (DE3) RIL
Kind of test: ITC with purified His-tagged TUBB2B; supported by DARTS in SW620 and DLD1 lysates. It is filed as binding.

T1 sequence (Q9BVA1 whole entry): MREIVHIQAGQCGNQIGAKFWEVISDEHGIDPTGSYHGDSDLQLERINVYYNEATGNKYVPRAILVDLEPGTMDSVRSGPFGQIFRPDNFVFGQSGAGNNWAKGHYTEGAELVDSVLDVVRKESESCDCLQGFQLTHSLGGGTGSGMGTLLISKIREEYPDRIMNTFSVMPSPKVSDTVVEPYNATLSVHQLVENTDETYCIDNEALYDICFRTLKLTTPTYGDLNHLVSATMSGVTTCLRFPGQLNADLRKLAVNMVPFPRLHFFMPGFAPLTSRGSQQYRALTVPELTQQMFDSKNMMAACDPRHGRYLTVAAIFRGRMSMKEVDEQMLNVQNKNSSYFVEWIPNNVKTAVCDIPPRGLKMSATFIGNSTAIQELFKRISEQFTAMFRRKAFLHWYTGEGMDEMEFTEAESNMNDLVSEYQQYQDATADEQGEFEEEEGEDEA

`CC(C)C[C@H](c1c(O)c(C=O)c(O)c(C=O)c1O)[C@@H]1CC[C@@](C)(O)[C@@H]2C[C@H](C(C)(C)O)CC[C@]21C` [Macrocarpal I] showed a Kd of 1540 nM.

A word on the Kd: it is the free concentration of one partner at which half of the binding sites on the other are occupied at equilibrium, for simple one-to-one binding. Lower therefore signals tighter binding.
